Measurements taken from patent publication US20230119324A1, “EGFR INHIBITION TRIGGERS AN ADAPTIVE RESPONSE BY CO-OPTING ANTIVIRAL SIGNALING PATHWAYS IN LUNG CANCER” (The United States Government as represented by the …, priority 2020, published 2023).

Columns and labels:
[1] = system: EGFR mutant NSCLC cell lines; assay: AlamarBlue cell viability assay, EGFR mutant NSCLC cell lines; assay type: cell-based; conditions: for effect on pro-survival effect of exogenous Type I IFNs under EGFR inhibition: EGFR mutant lines, 50 ng/mL IFNα1 or IFNβ1, 72 h, Etanercept 50 µg/mL, BMS-345541 0.1 µM
Procedure: (§1) Cell viability assays were conducted with AlamarBlue Cell Viability Reagent from ThermoFisher (Waltham, MA), following the manufacturer’s protocol. Cells were cultured in Coming (Corning, NY) 96-well black plates with clear bottom and detected by the POLARstar Omega Microplate Reader (BMG LABTECH) (excitation at 544 nm and emission at 590 nm). At least 3 independent experiments were done.

[2] = system: Type I interferons (IFNα1, IFNβ1); assay: qPCR and ELISA for Type I interferons in NSCLC cell lines; assay type: cell-based, human; conditions: BX795 1 µM, BMS-345541 0.1 µM
Procedure: Total RNA was isolated by TRIzol Reagent (Fisher Scientific). cDNA Reverse Transcription was performed by using High-Capacity cDNA Reverse Transcription Kit (Applied Biosystems). PCR primers were synthesized by IDT (Coralville, IA). Each PCR reaction was carried out in triplicate in a 20 µl volume using SYBR Green Master Mix (Applied Biosystems) for 15 minutes at 95° C. for initial denaturing, followed by 40 cycles of 95° C. for 15 s and 60° C. for 60 s in ViiA 7 Real-Time PCR System (Applied Biosystems). At least three independent experiments were done. Values for each gene were normalized to expression levels of ACTB (β-Actin) mRNA. Primer sequences were as follows.
To detect IFNα and IFNβ levels in medium, cells were cultured in serum free medium and treated with indicated drugs for 48 hours. Supernatant was then collected and concentrated using a Pierce protein concentrator (Thermo-Fisher). To test IFNα and IFNβ in lysates, cell and tumor lysates were extracted using RIPA buffer. Total protein concentrations were determined by Pierce BCA Protein Assay Kit (Fisher Scientific). Then, the levels of IFNα and IFNβ protein were measured by ELISA using human IFNα ELISA kit (41100) and human IFNβ ELISA kit (41440), from PBL Assay Science (Piscataway, NJ) according to the manufacturer’s protocol.
ATCB (β-Actin) expression was the loading control.
IFNα1 and IFNβ1 mRNA levels were detected by qPCR with β-Actin as the loading control.
IFNα1 and IFNβ1 mRNA levels were detected by qPCR. β-Actin was used as the loading control. Data refers to mean ± S.E.M, n=3 independent repeated experiments. One-way ANOVA with Dunnett’s test was used to determine adjusted p value for comparison between untreated and each treated sample. *: p<0.05, **: p<0.01, ***: p<0.001. H1666 is reported to harbor IFNA1 homodeletion in COSMIC (Catalogue Of Somatic Mutations In Cancer)-v90 http://cancer.sanger.ac.uk/cosmic (Updated 5 Sep. 2019), also in Data from a CPRIT (Cancer Prevention & Research Institute of Texas)-funded NGS (next generation sequencing) project by Dr. John Minna, UT Southwestern Medical Center, and Data from Dr. Adi Gazdar, UT Southwestern Medical Center. All other cell lines used in this research were searched on those databases above and confirmed to harbor neither IFNA1 nor IFNB1 homodeletion. Western blots are representative of 3 independent experiments with similar results. Cropped images are shown. Uncropped Western blot images are shown in Source Data.
The protein concentration of IFNα1 and IFNβ1 in cell lysates were measured by ELISA. […]
IFNA1 andIFNB1 mRNA levels were tested by qPCR. IκBα-DN overexpression was detected by Western blot. […]
Referring to FIGS. 14T-U, H1975 cells were treated with 0.1 µM Afatinib for indicated time points, IFNA1 and IFNB1 mRNA levels were detected by qPCR.

[3] = system: IRF3; assay: ISRE / IFI27-ISRE luciferase reporter assay; assay type: cell-based; conditions: EGFR mutant cells; erlotinib 0.1 µM and 1 µM BX795, 24 h
Procedure: (§2) Cells were plated in 48 well dishes followed by plasmid transfection with two reporters detecting activation of IRF3, ISRE-luciferase reporter or IFI27-ISRE luciferase reporter^22, using lipofectamine 2000. A dual-luciferase reporter assay system was used according to the instructions of the manufacturer (Promega, Madison WI). Firefly luciferase activity was measured in the POLARstar Omega Microplate Reader (BMG LABTECH) and normalized based on Renilla luciferase activity. Three independent experiments were done in triplicate.

[4] = system: TBK1 and IRF3; assay: Western blot for TBK1 and IRF3 activation in NSCLC cell lines; assay type: cell-based; conditions: EGFR mutant cells; 0.1 µM erlotinib and 1 µM BX795, 24 hours
Procedure: (§3) Western blot and immunoprecipitation were performed according to standard protocols. Western blot results are representative of at least 3 independent experiments. EGFR (06-847) antibody was from EMD Millipore (Billerica, MA); p-EGFR (Tyr1068) (2236), p-TBK1 (Ser172) (5483), TBK1 (3504), IKKε (2905), IRF3 (11904), K63-Ub (12930), RIG-I (3743), STAT1 (9172), p-STAT1 (Tyr701) (9167), AhR (83200), LAMIN A/C (4777), STING (3337), p-STING (Ser366) (19781), PD1 (86163), PD-L1 (13684), PD-L2 (82723) and IκBα (4814) antibodies were from Cell Signaling Technology (Danvers, MA); IFNAR1 (sc-7391), IFNGR1 (sc-12755), TNFR1 (sc-8346), and β-Actin (sc-47778) were from Santa Cruz Biotechnology (Dallas, TX); TRIM32 (Mab6515) antibody was from R&D (Minneapolis, MN); p-IRF3 (Ser386) (ab76493) antibody was from Abcam (Cambridge, MA).

[5] = system: NF-κB; assay: NF-κB luciferase reporter assay, TNF stimulation; assay type: cell-based; conditions: EGFR mutant lines; 10 µg/mL Etanercept 1 h, then 10 ng/mL TNF 24 h
Procedure: as §2
Referring to FIG. 16G and FIG. 16H, EGFR mutant lines were transfected with an NF-κB reporter for 48 h, followed by 10 µg/mL Etanercept for 1 h and then 10 ng/mL TNF for 24 h, followed by a luciferase assay or Western blot.

[6] = system: H1975 cells; assay: AlamarBlue assay in H1975 cells; assay type: cell-based; conditions: 10 µg/mL Anifrolumab with 0.1 µM Afatinib, 72 hours
Procedure: as §1
(§4) IFNAR1 siRNA was confirmed by Western blot.

[7] = system: EGFRwt NSCLC cell lines; assay: AlamarBlue cell viability assay, EGFRwt NSCLC cell lines; assay type: cell-based; conditions: 72 h
Procedure: as §1
Western blot confirming the silencing of IFNAR1.
Data represents mean ± S.E.M. of three independent repeated experiments. *: p<0.05, **: p<0.01, ***: p<0.001, by two-way ANOVA adjusted by Bonferroni’s correction. Western blots are representative of 3 independent experiments with similar results. Cropped images are shown. Uncropped Western blot images are shown in Source Data.

[8] = system: PD-L1; assay: Western blot for PD-L1 in NSCLC cell lines; assay type: cell-based; conditions: HCC827 and H3255; 100 or 10 nM erlotinib 24 h, 10 µg/mL Anifrolumab
Procedure: as §3
PD-1, PD-L1, and PD-L2 expression was detected by Western blot. PD-L1 expression levels were partly shown above. Signalstrength was represented by symbols. -: undetected, +: weak, ++: expressed, +++: strong signals. Western blot and Immunofluorescent staining images are representative of 3 independent experiments with similar results. Cropped images are shown. Uncropped Western blot images are shown in Source Data.

[9] = system: HCC827 derived ER3, ER4A, ER4B, ER5; assay: AlamarBlue assay in HCC827-derived erlotinib-resistant lines; assay type: cell-based; conditions: 10 µg/mL Anifrolumab with erlotinib, 72 hours
Procedure: as §1, §4

[10] = system: STAT1; assay: Western blot for total and phosphorylated STAT1; assay type: cell-based; conditions: 0.1 or 1 µM erlotinib with 10 µg/mL Anifrolumab
Procedure: as §3
Cell lysates were collected and subjected to Western blot for detection of total and phosphorylated STAT1 expression. β-Actin was the loading control.

[11] = EGFR mutant cell lines, 0.1 µM erlotinib 24 h, Etanercept 10 µg/mL

## Cc1ccc2nc(NCCN)c3ncc(C)n3c2c1 [BMS-345541]
[1]; 0.1 µM erlotinib
  effect on pro-survival effect of exogenous Type I IFNs under EGFR inhibition: fail to abrogate the protective effect of type I IFNs
[2]; EGFRwt cell lines, 1 µM erlotinib 24 h
  effect on erlotinib-induced upregulation of IFN: blocks EGFR inhibition-induced upregulation of IFN

## O=C(NCCCNc1nc(Nc2cccc(NC(=O)N3CCCC3)c2)ncc1I)c1cccs1 [BX-795]
[1]; four EGFR mutant cell lines, 0.01 µM erlotinib and 1 µM BX795, 72 hours
  combination with EGFR inhibition in cell viability assays: synergized with EGFR inhibition
[3]
  effect on erlotinib-induced IRF3 transcriptional activity: loss of erlotinib-induced IRF3 transcriptional activity
[4]
  effect on EGFR inhibition-induced IRF3 phosphorylation: loss of EGFR inhibition-induced IRF3 phosphorylation
[2]; [11]
  effect on erlotinib-induced upregulation of IFN: completely suppressed erlotinib-induced upregulation of IFN

## Etanercept
[1]; 0.1 µM erlotinib
  effect on pro-survival effect of exogenous Type I IFNs under EGFR inhibition: fails to block the pro-survival effects of IFNs
[5]
  effect on TNF-induced activation of NF-κB: efficiently blocked TNF-induced activation of NF-κB
[2]; [11]
  effect on erlotinib-induced upregulation of IFN: failed to inhibit erlotinib induced upregulation of type I IFNs

B1: IFNα: Recombinant human IFNα1, exogenous Type I interferon (protein, UniProt P01562 24-189, looked up)
Interferon alpha-1/13: CDLPETHSLDNRRTLMLLAQMSRISPSSCLMDRHDFGFPQEEFDGNQFQKAPAISVLHELIQQIFNLFTTKDSSAAWDEDLLDKFCTELYQQLNDLEACVMQEERVGETPLMNADSILAVKKYFRRITLYLTEKKYSPCAWEVVRAEIMRSLSLSTNLQERLRRKE
[1]; EGFR mutant cell lines, 0.1 µM erlotinib, IFNα1 or IFNβ1 50 ng/mL, 72 h
  protection from erlotinib-induced cell death: protects NSCLC cells with mutant EGFR activating from cell death

B2: Anifrolumab: monoclonal antibody directed against IFNAR that inhibits the binding of Type I IFNs to its receptor (antibody, chains of the INN, looked up)
heavy: EVQLVQSGAEVKKPGESLKISCKGSGYIFTNYWIAWVRQMPGKGLESMGIIYPGDSDIRYSPSFQGQVTISADKSITTAYLQWSSLKASDTAMYYCARHDIEGFDYWGRGTLVTVSSASTKGPSVFPLAPSSKSTSGGTAALGCLVKDYFPEPVTVSWNSGALTSGVHTFPAVLQSSGLYSLSSVVTVPSSSLGTQTYICNVNHKPSNTKVDKRVEPKSCDKTHTCPPCPAPEFEGGPSVFLFPPKPKDTLMISRTPEVTCVVVDVSHEDPEVKFNWYVDGVEVHNAKTKPREEQYNSTYRVVSVLTVLHQDWLNGKEYKCKVSNKALPASIEKTISKAKGQPREPQVYTLPPSREEMTKNQVSLTCLVKGFYPSDIAVEWESNGQPENNYKTTPPVLDSDGSFFLYSKLTVDKSRWQQGNVFSCSVMHEALHNHYTQKSLSLSPG
light: EIVLTQSPGTLSLSPGERATLSCRASQSVSSSFFAWYQQKPGQAPRLLIYGASSRATGIPDRLSGSGSGTDFTLTITRLEPEDFAVYYCQQYDSSAITFGQGTRLEIKRTVAAPSVFIFPPSDEQLKSGTASVVCLLNNFYPREAKVQWKVDNALQSGNSQESVTEQDSKDSTYSLSSTLTLSKADYEKHKVYACEVTHQGLSSPVTKSFNRGEC
[6]
  sensitivity to afatinib: rendered sensitive to afatinib
[7]; EGFRwt lines with Ros1 mutation, EML4/ALK fusion, Met amplification, Braf mutation, 10 µg/mL Anifrolumab
  sensitivity to erlotinib (cell viability): resulted in sensitivity to erlotinib
[7]; resistant EGFRwt/KRas cell lines, 1 µM erlotinib with 10 µg/mL Anifrolumab
  sensitivity to erlotinib (cell viability): enhanced sensitivity to erlotinib
[8]
  effect on erlotinib-induced upregulation of PD-L1: abrogated
[9]
  sensitivity to erlotinib in secondary resistant lines: restore sensitivity to erlotinib
[10]
  effect on erlotinib induced activation of STAT1: blocks erlotinib induced activation of STAT1
